Source: PubChem BioAssay (NCI)
“And” between values parts separate entries of the source, which are not always exact repeats. Equal entries are not always repeated.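 Dose response: 5 concentrations. Exposure: 48 h. Format: 96-well plates. Endpoint: linear interpolation; highest concentration if not reached. At the GI50, growth is halved. TGI marks complete inhibition of growth.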

Experiments:
Experiment in all cases: growth of human tumour cells (NCI), 48 h
ACHN renal = test system: ACHN renal
MOLT-4 leukemia = test system: MOLT-4 leukemia
BT-549 breast = test system: BT-549 breast
HCT-116 colon = test system: HCT-116 colon
UACC-62 melanoma = test system: UACC-62 melanoma
SK-MEL-5 melanoma = test system: SK-MEL-5 melanoma
OVCAR-8 ovarian = test system: OVCAR-8 ovarian
HS 578T breast = test system: HS 578T breast
DMS 114 small cell lung = test system: DMS 114 small cell lung

| SMILES | GI50 (ACHN renal) | TGI (ACHN renal) | GI50 (MOLT-4 leukemia) | TGI (MOLT-4 leukemia) | GI50 (BT-549 breast) | TGI (BT-549 breast) | GI50 (HCT-116 colon) | TGI (HCT-116 colon) | GI50 (UACC-62 melanoma) | TGI (UACC-62 melanoma) | GI50 (SK-MEL-5 melanoma) | TGI (SK-MEL-5 melanoma) | GI50 (OVCAR-8 ovarian) | TGI (OVCAR-8 ovarian) | GI50 (HS 578T breast) | TGI (HS 578T breast) | TGI (DMS 114 small cell lung) |
| --- | --- | --- | --- | --- | --- | --- | --- | --- | --- | --- | --- | --- | --- | --- | --- | --- | --- |
| Cc1ccc(NC(=O)c2sc3nc(C)c(C(O)c4ccccc4)cc3c2N)cc1 (configuration not stated) | 0.658 µM | 20.2 µM | 0.643 µM | > 100 µM | 1.15 µM | 33.7 µM | 0.381 µM | 12.2 µM | 0.621 µM | > 100 µM | 0.417 µM | > 41.8 µM | 0.611 µM | > 100 µM | 0.327 µM | 10.3 µM | – |
| Cc1ccc2c(c1)CN(C(=O)CCC(=O)OCc1ccccc1)c1ccc(C)cc1CN2C(=O)CCC(=O)OCc1ccccc1 | – | > 100 µM | – | > 100 µM | – | > 100 µM | – | > 100 µM | – | > 100 µM | – | > 100 µM | – | > 100 µM | – | > 100 µM | > 100 µM |
| Cc1ccc(-c2cc(=O)c3cc(C)c(C)c(C(=O)O)c3o2)cc1C | – | > 100 µM | – | > 100 µM | – | – | – | > 100 µM | – | > 100 µM | – | > 100 µM | – | > 100 µM | – | – | > 100 µM |
| Cc1ccc2[nH]c(C(=O)NN3C(=O)C(C)SC34CCCC(C)C4)c(-c3ccccc3)c2c1 (configuration not stated) | > 100 µM | > 100 µM | 19.3 µM | > 100 µM | 76.7 µM | > 100 µM | 75.7 µM | > 100 µM | 76.8 µM | > 100 µM | > 100 µM | > 100 µM | 34.5 µM | > 100 µM | 87.8 µM | > 100 µM | – |
| Fc1ccc(-c2nn3ncccc3c2-c2ccnc(Nc3ccc4c(c3)OCCO4)n2)cc1 | 1.16 µM | > 25 µM | 4.8 µM | > 22.4 µM | 7.87 µM | 24.9 µM | 3.05 µM | 7.09 µM | 3.97 µM | 9.12 µM | 3.99 µM | 9.51 µM | 6.15 µM | > 25 µM | 2.15 µM | > 23.2 µM | – |
| COc1cc2c(c(OC)c1OC)-c1c(cc3c(c1OC)OCO3)C1OC2C(C)C1C (configuration not stated) (tested in a mixture with another compound) | – | > 100 µM | – | 70.4 µM | – | > 100 µM | – | > 100 µM | – | > 100 µM | – | > 100 µM | – | > 100 µM | – | > 100 µM | – |
| Cc1ccc2c3c(c(=O)[nH]c2c1)C1(C(C#N)=C(N)O3)c2cc(Br)ccc2-c2ccc(Br)cc21 | 1.87 µM | 4.15 µM | 2.92 µM | 10.1 µM | 3.93 µM | 19.8 µM | 1.94 µM | 4.35 µM | 2.19 µM | 11.3 µM | 10.2 µM | 24.1 µM | 3.02 µM | 8.62 µM | 2.22 µM | 5.95 µM | – |
| Cc1nc2ccccc2c(=O)n1-c1ccccc1F | – | > 100 µM | – | > 100 µM | – | – | – | > 100 µM | – | > 100 µM | – | > 100 µM | – | > 100 µM | – | – | > 100 µM |
| O=C1/C(=C/c2ccc(O)cc2)CSc2ccc(Cl)cc21 | 11.9 µM | 24.3 µM | 4.09 µM | > 100 µM | 15.7 µM | 38.3 µM | 7.08 µM | > 100 µM | 12.2 µM | 26.2 µM | 12.3 µM | 24.7 µM | 11.1 µM | > 100 µM | 2.9 µM | 7.36 µM | – |
| CC(C)(C)c1cc(NC(=O)Cc2ccc(-c3cnc4cc(-c5cnn(CCN6CCOCC6)c5)ccc4n3)cc2)no1 | 0.151 µM and 0.302 µM and 0.0394 µM | 50 µM and > 100 µM and > 3 µM | 0.26 µM and 0.429 µM and 0.115 µM | 50 µM and > 100 µM and > 3 µM | – | 39.5 µM and > 100 µM and > 3 µM | 0.226 µM and 0.417 µM and 0.0705 µM | 50 µM and > 100 µM and > 3 µM | 0.26 µM and 0.364 µM and 0.0552 µM | 50 µM and > 100 µM and > 3 µM | 0.612 µM and 0.674 µM and 0.232 µM | 50 µM and 11.3 µM and > 0.95 µM | 0.481 µM and 0.507 µM and 0.121 µM | 50 µM and > 100 µM and > 3 µM | 0.132 µM and 0.235 µM and 0.0377 µM | 1.56 µM and 2.88 µM and > 2.8 µM | – |
| CC(C)(C)c1ccc(O)c(CN(Cc2cc(C(C)(C)C)ccc2O)c2ccccc2)c1 | – | 35.5 µM | – | 37.8 µM | – | 36.4 µM | – | 33.9 µM | – | 28.4 µM | – | 28.5 µM | – | 37.5 µM | – | 42 µM | – |
| Cn1cnc([N+](=O)[O-])c1[Se]c1nc(N)nc2c1ncn2C1OC(CO)C(O)C1O (configuration not stated) | – | > 100 µM | – | > 100 µM | – | > 100 µM | – | > 100 µM | – | > 100 µM | – | > 100 µM | – | > 100 µM | – | > 100 µM | – |
| COC(=O)c1c(C)[nH]c(/C=C2\N=C(c3ccc[nH]3)C=C2OC)c1C | 0.189 µM | 1.43 µM | 0.0495 µM | > 36.5 µM | 0.199 µM | 3.04 µM | 0.0378 µM | 1.2 µM | 0.287 µM | 0.921 µM | 0.225 µM | 0.665 µM | 0.229 µM | – | 0.693 µM | – | – |
| CCCCN1CSC(=S)N(Cc2ccccc2)C1 | – | > 100 µM | – | 78.2 µM | – | > 100 µM | – | > 100 µM | – | > 100 µM | – | 67.5 µM | – | > 100 µM | – | > 100 µM | – |
| CON(C)C(=O)N1N=C(c2cc(F)ccc2F)SC1(CCCN)c1ccccc1 (configuration not stated) | 7.79 µM and 4.91 µM | 22.5 µM and 21.8 µM | 0.0547 µM and < 0.01 µM | 20 µM and 18.2 µM | 0.302 µM | 17.5 µM | < 0.01 µM | 16.1 µM and 15.2 µM | 0.0618 µM and < 0.01 µM | 18.8 µM and 16.2 µM | < 0.01 µM | 12.2 µM and 12.6 µM | 0.0266 µM and < 0.01 µM | 18.9 µM and 19.8 µM | 0.0555 µM and < 0.01 µM | 17.4 µM and 21.8 µM | – |
| N#Cc1cccc(NC(=O)c2cc(-c3ccc(F)cc3F)ccc2O)c1 | 2.56 µM | 7.89 µM | 2.46 µM | 6.65 µM | 2.31 µM | 7.06 µM | 2.57 µM | 10.6 µM | 0.87 µM | 4.42 µM | 0.728 µM | 2.15 µM | 2.88 µM | > 100 µM | 2.31 µM | 8.91 µM | – |
| COc1cc2c3c(n(C)c(=O)c2cc1OC)-c1cc2c(cc1/C3=C\CNCCCN)OCO2 | 0.271 µM | 2.07 µM | 0.0118 µM | 0.0502 µM | 1.91 µM | 5.22 µM | 0.107 µM | 4.19 µM | 0.214 µM | 1.12 µM | 1.03 µM | 2.71 µM | 0.13 µM | 1.05 µM | 1.28 µM | 6.06 µM | – |
